Measured values: ChEMBL document CHEMBL1201862, “PubChem BioAssay data set” (2004)
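Protocol summary: plate cells (96-well), add compound at 5 concentrations, incubate 48 h, interpolate endpoints linearly. At the GI50, growth is halved.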 The source made the active and inactive calls. Rule as the data show it: active = GI50 up to about 1.1 µM and inactive = higher.

Tests used:
Test in all cases: inhibition of tumour cell growth, NCI panel, 48 h
MOLT-4 = tested on: MOLT-4
SN12C = tested on: SN12C
CAKI-1 = tested on: CAKI-1
HOP-62 = tested on: HOP-62
MDA-MB-435 = tested on: MDA-MB-435
OVCAR-5 = tested on: OVCAR-5
OVCAR-3 = tested on: OVCAR-3
NCI-H226 = tested on: NCI-H226
A498 = tested on: A498
UO-31 = tested on: UO-31
SR = tested on: SR
786-0 = tested on: 786-0
HCT-116 = tested on: HCT-116
TK-10 = tested on: TK-10
BT-549 = tested on: BT-549
IGROV-1 = tested on: IGROV-1
T47D = tested on: T47D
NCI-H460 = tested on: NCI-H460
NCI-H522 = tested on: NCI-H522
UACC-62 = tested on: UACC-62

SMILES | GI50 (MOLT-4) | GI50 (SN12C) | GI50 (CAKI-1) | GI50 (HOP-62) | GI50 (MDA-MB-435) | GI50 (OVCAR-5) | GI50 (OVCAR-3) | GI50 (NCI-H226) | GI50 (A498) | GI50 (UO-31) | GI50 (SR) | GI50 (786-0) | GI50 (HCT-116) | GI50 (TK-10) | GI50 (BT-549) | GI50 (IGROV-1) | GI50 (T47D) | GI50 (NCI-H460) | GI50 (NCI-H522) | GI50 (UACC-62)
N#CC(NNC(=O)c1c(Cl)c(Cl)c(Cl)c(Cl)c1-c1nc2cc(C(=O)c3ccccc3)ccc2[nH]1)c1cccc(Oc2ccccc2)c1 (centres undefined) | 24.3 µM (inactive) | 23.9 µM (inactive) | 35.2 µM (inactive) | 25.8 µM (inactive) | 16.6 µM (inactive) | 28.7 µM (inactive) | 28.1 µM (inactive) | 21.3 µM (inactive) | 20.8 µM (inactive) | 30.8 µM (inactive) | 20.6 µM (inactive) | 22 µM (inactive) | 29.6 µM (inactive) | 31.3 µM (inactive) | 19.1 µM (inactive) | 26.7 µM (inactive) | 18.9 µM (inactive) | – | – | –
Nc1ncnc2c1ncn2[C@@H]1C[C@@H]1CO | > 100 µM (inactive) | > 100 µM (inactive) | – | > 100 µM (inactive) | > 100 µM (inactive) | > 100 µM (inactive) | > 100 µM (inactive) | > 100 µM (inactive) | > 100 µM (inactive) | > 100 µM (inactive) | > 100 µM (inactive) | > 100 µM (inactive) | > 100 µM (inactive) | – | > 100 µM (inactive) | – | > 100 µM (inactive) | > 100 µM (inactive) | > 100 µM (inactive) | –
N#Cc1c(N)c(C#N)c2c(c1-c1ccc(Cl)cc1)COc1ccccc1-2 | 11.4 µM (inactive) | 12.4 µM (inactive) | – | 14.9 µM (inactive) | 31.7 µM (inactive) | 24.9 µM (inactive) | 13.7 µM (inactive) | 32.1 µM (inactive) | 18.2 µM (inactive) | 4.04 µM (inactive) | 11.4 µM (inactive) | 3.02 µM (inactive) | 12.2 µM (inactive) | 14.6 µM (inactive) | 29.9 µM (inactive) | 20.4 µM (inactive) | 18.8 µM (inactive) | 30.3 µM (inactive) | – | 30.1 µM (inactive)
Cc1cc2[nH]c3[nH]c(=O)[nH]c(=O)c3c2cc1C | – | > 100 µM (inactive) | > 100 µM (inactive) | 29 µM (inactive) | > 100 µM (inactive) | > 100 µM (inactive) | – | > 100 µM (inactive) | > 100 µM (inactive) | > 100 µM (inactive) | 27.1 µM (inactive) | > 100 µM (inactive) | > 100 µM (inactive) | > 100 µM (inactive) | > 100 µM (inactive) | > 100 µM (inactive) | > 100 µM (inactive) | – | > 100 µM (inactive) | 97.1 µM (inactive)
COc1cc(NC(C)=O)ccc1C(=O)N/N=C/c1ccc(Cl)cc1Cl | 73.8 µM (inactive) | 22.4 µM (inactive) | 39.6 µM (inactive) | 29.6 µM (inactive) | 19.6 µM (inactive) | 46.3 µM (inactive) | 52.8 µM (inactive) | 77.1 µM (inactive) | 24.1 µM (inactive) | 43.1 µM (inactive) | 18.2 µM (inactive) | 24.9 µM (inactive) | 80.5 µM (inactive) | – | > 100 µM (inactive) | 30.2 µM (inactive) | 16.3 µM (inactive) | – | 45.2 µM (inactive) | 31.6 µM (inactive)
c1csc(-c2cscc2-c2cccs2)c1 | 34.5 µM (inactive) | > 100 µM (inactive) | > 100 µM (inactive) | 27.6 µM (inactive) | 33.4 µM (inactive) | 24.1 µM (inactive) | 17.4 µM (inactive) | 27.1 µM (inactive) | > 100 µM (inactive) | 58.2 µM (inactive) | 27.7 µM (inactive) | 43.6 µM (inactive) | 29.8 µM (inactive) | 91 µM (inactive) | 63.4 µM (inactive) | 67.8 µM (inactive) | > 100 µM (inactive) | > 100 µM (inactive) | – | 72.3 µM (inactive)
Nc1ccc(-c2nc3ccccc3s2)cc1Br | 31.4 µM (inactive) | > 100 µM (inactive) | > 100 µM (inactive) | 29.9 µM (inactive) | > 100 µM (inactive) | 0.134 µM (active) | < 0.01 µM (active) | – | 2.44 µM (inactive) | 27.5 µM (inactive) | > 94.8 µM (inactive) | 76.9 µM (inactive) | – | 0.0141 µM (active) | > 56.8 µM (inactive) | < 0.01 µM (active) | 58.1 µM (inactive) | 4.31 µM (inactive) | > 100 µM (inactive) | > 100 µM (inactive)
Cc1ccc(S(=O)(=O)CNC(=O)C(O)(O)C(F)(F)F)cc1 | > 100 µM (inactive) | > 100 µM (inactive) | > 100 µM (inactive) | > 100 µM (inactive) | > 100 µM (inactive) | > 100 µM (inactive) | > 100 µM (inactive) | – | > 100 µM (inactive) | > 100 µM (inactive) | > 100 µM (inactive) | > 100 µM (inactive) | > 100 µM (inactive) | > 100 µM (inactive) | > 100 µM (inactive) | > 100 µM (inactive) | > 100 µM (inactive) | > 100 µM (inactive) | > 100 µM (inactive) | > 100 µM (inactive)
O=c1[nH]cnc2c1ncn2[C@@H]1C[C@H]1CO | > 100 µM (inactive) | > 100 µM (inactive) | > 100 µM (inactive) | > 100 µM (inactive) | > 100 µM (inactive) | > 100 µM (inactive) | – | > 100 µM (inactive) | > 100 µM (inactive) | > 100 µM (inactive) | > 100 µM (inactive) | > 100 µM (inactive) | > 100 µM (inactive) | > 100 µM (inactive) | > 100 µM (inactive) | > 100 µM (inactive) | > 100 µM (inactive) | > 100 µM (inactive) | > 100 µM (inactive) | > 100 µM (inactive)
CC1(C)OCC2(CO1)CSCCCSCC1(COC(C)(C)OC1)CSCCCSC2 | > 100 µM (inactive) | > 100 µM (inactive) | – | > 100 µM (inactive) | > 100 µM (inactive) | > 100 µM (inactive) | > 100 µM (inactive) | – | – | > 100 µM (inactive) | > 100 µM (inactive) | > 100 µM (inactive) | > 100 µM (inactive) | > 100 µM (inactive) | > 100 µM (inactive) | > 100 µM (inactive) | > 100 µM (inactive) | > 100 µM (inactive) | > 100 µM (inactive) | > 100 µM (inactive)
Cc1cc2nc(C=C(C(F)(F)F)C(F)(F)F)oc2cc1C | 1.85 µM (inactive) | 2.41 µM (inactive) | 2.42 µM (inactive) | 3.83 µM (inactive) | 2.14 µM (inactive) | 3.04 µM (inactive) | 1.95 µM (inactive) | – | > 10 µM (inactive) | 4.11 µM (inactive) | 2.22 µM (inactive) | 1.96 µM (inactive) | 1.38 µM (inactive) | 2.45 µM (inactive) | 2.67 µM (inactive) | 2.91 µM (inactive) | 2.94 µM (inactive) | 3.92 µM (inactive) | 3.12 µM (inactive) | 3.32 µM (inactive)
CC(C)(C)c1ccc(-c2nc3ccccc3c(=O)o2)cc1 | 20.4 µM (inactive) | 34.3 µM (inactive) | 86.3 µM (inactive) | 31.8 µM (inactive) | > 100 µM (inactive) | 44.2 µM (inactive) | 24.5 µM (inactive) | – | 71.6 µM (inactive) | 43.1 µM (inactive) | 22.5 µM (inactive) | 74.6 µM (inactive) | 38.7 µM (inactive) | 70.1 µM (inactive) | 24.2 µM (inactive) | 37.3 µM (inactive) | 39.8 µM (inactive) | 33.3 µM (inactive) | 30.3 µM (inactive) | 30.3 µM (inactive)
COC(=O)C(CCSC)NC(=O)Cc1ccc(C(=O)c2ccccc2)cc1 (centres undefined) | 55 µM (inactive) | 50.1 µM (inactive) | 70.3 µM (inactive) | 88.1 µM (inactive) | 29.1 µM (inactive) | > 100 µM (inactive) | 67.6 µM (inactive) | 78.5 µM (inactive) | > 100 µM (inactive) | 53.7 µM (inactive) | 31.3 µM (inactive) | > 100 µM (inactive) | 39.7 µM (inactive) | – | 29 µM (inactive) | 64.3 µM (inactive) | 59.2 µM (inactive) | 34.7 µM (inactive) | 57.8 µM (inactive) | 51.2 µM (inactive)
C[C@@H](NC(C#N)c1ccco1)c1ccccc1 (some centres undefined) | > 100 µM (inactive) | > 100 µM (inactive) | – | > 100 µM (inactive) | > 100 µM (inactive) | > 100 µM (inactive) | > 100 µM (inactive) | > 100 µM (inactive) | > 100 µM (inactive) | > 100 µM (inactive) | > 100 µM (inactive) | > 100 µM (inactive) | > 100 µM (inactive) | > 100 µM (inactive) | > 100 µM (inactive) | > 100 µM (inactive) | > 100 µM (inactive) | > 100 µM (inactive) | – | > 100 µM (inactive)
CCOc1cc(NC(C)=O)ccc1C(=O)NN1C(=O)C(Oc2ccccc2)C1c1ccc(O)c(OC)c1 (centres undefined) | 12.9 µM (inactive) | 28 µM (inactive) | 54.8 µM (inactive) | 42.7 µM (inactive) | 42.4 µM (inactive) | > 100 µM (inactive) | 41.5 µM (inactive) | 34.2 µM (inactive) | – | 35 µM (inactive) | 25.8 µM (inactive) | 43.8 µM (inactive) | 52.4 µM (inactive) | 40.8 µM (inactive) | 28.4 µM (inactive) | 34 µM (inactive) | 14.4 µM (inactive) | – | – | –
